# According to patent publication US10143667B2, “Ceramide-like function imparting agent” (KAO CORPORATION, priority 2013, dated 2018):
# Key:
# [1] = Evaluation of lamellar-formation ability (X-ray diffraction); assay type: physicochemical; design: key to Evaluation of X-ray diffraction measurement: wide-angle X-ray measurement: A: diffraction peaks originating from crystals of stearic acid and cholesterol disappeared and only the peaks originating from a lamellar structure were observed near 2θ=22°; B: diffraction peaks originating from crystals of stearic acid and cholesterol remained but peaks originating approximately from a lamellar structure were observed; C: peaks originating from a lamellar structure were observed only partly; D: no peaks originating from a lamellar structure were observed; key to Evaluation of X-ray diffraction measurement: small-angle X-ray measurement: E: diffraction peaks originating from a periodic structure of lamellar structure were observed; F: no diffraction peaks were observed; conditions: equimolar mixture of stearic acid, cholesterol and sample, 30 wt % ion-exchange water
# Method: Evaluation of lamellar-formation ability was conducted according to the method by Mizushima et al. (Lipids, 30(4), 327-332 (1995)).
# Each of stearic acid and cholesterol, used as representatives of fatty acids that are horny layer intercellular lipids, as well as a sample to be evaluated was weighed to give an equimolar mixture, and an ion-exchange water was added thereto in an amount of 30 wt % of the weight of the lipids. The mixture was heat-melted and then cooled to give an evaluation sample.
# Wide-angle X-ray diffraction apparatus ((PANalytical) X' Pert MRD High Resolution X-ray Diffractometer)
# Small-angle X-ray scattering apparatus ((NANO Viewer manufactured by RIGAKU Corporation), Small-angle X-ray scattering)
# In the case where the wide-angle X-ray diffraction apparatus was used, sampling for measurement was conducted by finely grinding a sample in an agate mortar and packing the sample in a measurement cell to give a flat surface. In the case of small-angle X-ray scattering apparatus, the sample was packed in a cell made of stainless steel having grid openings of approximately 4 mm in width and 2 mm in depth.
# Conditions for wide-angle X-ray diffraction measurement: measurement cell: a cell for exclusive use made of stainless steel, applied voltage: 45 kV, applied current: 40 mA.
# measured range: 2θ=3° to 45°, measurement speed: 2θ=1°/min.
# Conditions for small-angle X-ray measurement: measurement cell: a sample that was packed in a stainless steel holder having grid openings was measured.
# applied voltage: […], applied current: 30 mA, X-ray irradiation period: 30 minutes, measured at a camera length of from 450 to 650 mm using a detector with an imaging plate.
# In a wide-angle X-ray diffraction measurement, a symbol A was assigned to a sample wherein diffraction peaks originating from crystals of stearic acid and cholesterol disappeared and only the peaks originating from a lamellar structure were observed near 2θ=22°, a symbol B was assigned to a sample wherein diffraction peaks originating from crystals of stearic acid and cholesterol remained but peaks originating approximately from a lamellar structure were observed, a symbol C was assigned to a sample wherein peaks originating from a lamellar structure were observed only partly, and a symbol D was assigned to a sample wherein no peaks originating from a lamellar structure were observed. In addition, in a small-angle X-ray measurement, a symbol E was assigned to a sample wherein diffraction peaks originating from a periodic structure of lamellar structure were observed, and a symbol F was assigned to a sample wherein no diffraction peaks were observed.
# [2] = Evaluation as to occlusion (TEWL-inhibition), lipid-impregnated filter paper; conditions: filter paper immersed in 10% lipid mixture solution; average of three measurements; versus solvent-only filter
# Method: Evaluation as to occlusion was conducted according to the method by Akasaki et al. (Fragrance Journal, extra edition, No. 13, p. 65, 1994).
# Each of stearic acid and cholesterol, used as representatives of fatty acids that are horny layer intercellular lipids, and a sample to be evaluated was weighed into a screw tube, and a mixed liquid of chloroform and methanol (9:1 by volume) was used to give a 10% solution of the lipid mixture (w/v). A filter paper ([…] Co. Ltd., No. 5C, ϕ=21 mm) was immersed in the 10% solution, and then taken out, dried at room temperature, heated at 90° C. for one hour, hydrated by a water sprayer, heat-treated at 60° C. for 12 hours, and then cooled. The filter thus prepared was set in a vial charged with ion-exchange water (20 ml), and the weight of the filter was measured over time to calculate an amount of TEWL. As a control, was measured an amount of TEWL of a filter which had been immersed only in a mixed liquid of chloroform and methanol (9:1 by volume). A control rate of TEWL (%) was calculated according to the following equation: Control rate of TEWL (%)=(1−amount of TEWL of evaluated sample/amount of TEWL of control)×100. 2) Results
# [3] = Measurement on bonded water content (differential scan calorimetric analysis); assay type: physicochemical; conditions: equimolar mixture of stearic acid, cholesterol and sample plus ion-exchange water; DSC
# Method: Measurement on bonded water content was conducted according to the method by Akasaki et al. (Fragrance Journal, extra edition, No. 13, pp. 66-67, 1994).
# 1) Differential scan calorimetric analyzer: (DSC6100 (SII Seiko Instruments Inc.)).
# A sample prepared by adding ion-exchange water to an equimolar mixture of stearic acid and cholesterol, both used as representatives of fatty acids that are a horny layer intercellular lipid, and a sample to be evaluated, was encapsulated in a cell, and the water content thereof was measured. The temperature of the sample was raised from −40° C. at a rate of 1° C./minute to obtain an enthalpy change accompanied by the temperature raise. A bonded water content was determined from the relation between a water content of a lipid mixture (an amount of moisture absorbed) and a change of peak of enthalpy (melting heat), and an enthalpy change was obtained from the point 0.
Compound,Evaluation of X-ray diffraction measurement: small-angle X-ray measurement [1],Evaluation of X-ray diffraction measurement: wide-angle X-ray measurement [1],TEWL inhibition rate [2] [%],Bonded water content [3] [% by mass]
"(E)-N,N,-bis(1,3-dihydroxy-2-methylpropan-2-yl)-2-((hexadeca/octadeca)-2-en-1-yl)-succinamide [Compound 6]",E,B,,
"(E)-2-(hexadeca/octadeca)-2-en-1-yl)-N,N,-bis(2-hydroxyethyl)succinamide [Compound 1]",E,B,,
"CCCCCCCCCCCCC/C=C/CC(CC(=O)NCCCCCCCCCCCCCCCC)C(=O)NCCCCCCCCCCCCCCCC (centres unmarked) [Comparative Compound 3, (E)-2-(hexadeca-2-en-1-yl)-N,N,-dihexadecylsuccinamide, reference compound]",F,D,,
"(E)-2-(eicosa/docosa/tetracosa)-2-en-1-yl)-N,N,-bis(2-hydroxyethyl)succinamide [Compound 5]",E,A,,
"CCCCCCCCCCCCCCCC(=O)NCCO [Comparative Compound 1, N-(2-hydroxyethyl)palmitamide, reference compound]",F,D,,
"(E)-2-(hexadeca/octadeca)-2-en-1-yl)-N,N,-bis(2-(2-hydroxy-ethoxy)ethyl)succinamide [Comparative Compound 2, reference compound]",F,D,24.2,
"(E)-2-(hexadeca/octadeca)-2-en-1-yl)-N,N,-bis(1-hydroxypropan-2-yl)succinamide [Compound 4]",E,C,,
"CCCCCCCCCCCCCCCCOCC(O)CN(CCO)C(=O)CCCCCCCCCCCCCCC (centres unmarked) [Sphingolipid E, reference compound]",E,A,32.8,7.1
"(E)-N,N,-bis(3-hydroxypropyl)-2-((hexadeca/octadeca)-2-en-1-yl)-succinamide [Compound 3]",E,C,,
"(E)-N,N,-bis(1,3-dihydroxy-2-(hydroxymethyl)propan-2-yl)-2-((hexadeca/octadeca)-2-en-1-yl)-succinamide [Compound 7]",E,A,,
(E)-2-(hexadeca/octadeca)-2-en-1-yl)-N-hexadecyl-N-(2-hydroxyethyl)succinamide [Comparative compound 4],,,27.4,
"2-(hexadecyl/octadecyl)-N,N,-bis(2-hydroxyethyl)succinamide [Compound 2]",E,B,,
